Data: PubChem BioAssay (NCI)
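Compound exposure: 48 hours, 5 concentrations, 96-well plates. GI50: concentration for 50% inhibition of growth. At the TGI there is no net growth.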

How the values were obtained:
Assay in all cases: NCI tumour cell line growth inhibition, 48 h; in the data active = GI50 below about 0.43 µM; inactive = the rest
[1] = test system: UO-31 renal
[2] = test system: SK-MEL-5 melanoma
[3] = test system: UACC-62 melanoma
[4] = test system: RXF 393 renal
[5] = test system: MDA-MB-231 breast
[6] = test system: HOP-62 NSCLC
[7] = test system: CAKI-1 renal
[8] = test system: NCI-H522 lung
[9] = test system: U251 CNS
[10] = test system: SK-OV-3 ovarian
[11] = test system: OVCAR-5 ovarian
[12] = test system: DU-145 prostate
[13] = test system: SR leukemia
[14] = test system: BT-549 breast
[15] = test system: M14 melanoma
[16] = test system: TK-10 renal
[17] = test system: KM12 colon
[18] = test system: LOX IMVI melanoma
[19] = test system: NCI-H23 lung
[20] = test system: MALME-3M melanoma
[21] = test system: OVCAR-8 ovarian
[22] = test system: ACHN renal
[23] = test system: T-47D breast
[24] = test system: SF-268 CNS
[25] = test system: NCI/ADR-RES ovarian
[26] = test system: SK-MEL-2 melanoma
[27] = test system: PC-3 prostate
[28] = test system: EKVX NSCLC
[29] = test system: SK-MEL-28 melanoma
[30] = test system: RPMI-8226 leukemia
[31] = test system: COLO 205 colon
[32] = test system: A498 renal
[33] = test system: HL-60(TB) leukemia
[34] = test system: HCT-116 colon
[35] = test system: HCC-2998 colon
[36] = test system: SN12C renal
[37] = test system: K-562 leukemia
[38] = test system: SF-539 CNS
[39] = test system: SW-620 colon
[40] = test system: A549 NSCLC
[41] = test system: MDA-MB-435
[42] = test system: OVCAR-3 ovarian
[43] = test system: IGROV1 ovarian
[44] = test system: HS 578T breast
[45] = test system: HCT-15 colon
[46] = test system: NCI-H226 lung
[47] = test system: UACC-257 melanoma
[48] = test system: MCF7 breast
[49] = test system: HOP-92 NSCLC
[50] = test system: SF-295 CNS
[51] = test system: OVCAR-4 ovarian
[52] = test system: NCI-H460 lung
[53] = test system: SNB-75 CNS
[54] = test system: 786-0 renal
[55] = test system: CCRF-CEM leukemia
[56] = test system: HT29 colon
[57] = test system: SNB-19 CNS

O=c1ccc2nc(C(F)(F)F)nn(-c3ccccc3)c-2c1
28.9 µM: TGI [24]
29.7 µM: TGI [35]
3.42 µM: TGI [45]
67.1 µM: TGI [50]
27.7 µM: TGI [6]
3.09 µM: TGI [16]
4.31 µM: TGI [33]
2.8 µM: TGI [4] | TGI [7]
80.4 µM: TGI [44]
64 µM: TGI [25]
77.5 µM: TGI [30]
27.2 µM: TGI [32]
27.1 µM: TGI [28]
3.15 µM: TGI [34]
6.62 µM: TGI [23]
19 µM: TGI [15]
16.4 µM: TGI [41]
4.05 µM: TGI [47]
30.5 µM: TGI [46]
29.1 µM: TGI [11]
15.6 µM: TGI [26]
17.9 µM: TGI [3]
2.95 µM: TGI [42]
39 µM: TGI [40]
28.6 µM: TGI [9]
57.4 µM: TGI [36]
2.83 µM: TGI [51]
26.4 µM: TGI [53]
37.3 µM: TGI [17]
36.2 µM: TGI [52]
3.3 µM: TGI [20]
5.77 µM: TGI [31]
4.07 µM: TGI [48]
3.17 µM: TGI [12]
> 100 µM: TGI [10] | TGI [13]
3.71 µM: TGI [39]
2.9 µM: TGI [1]
24.8 µM: TGI [14]
2.45 µM: TGI [22]
21.1 µM: TGI [2]
3.22 µM: TGI [18]
inactive: GI50 [1] 1.48 µM | GI50 [2] 7.8 µM | GI50 [3] 5.13 µM | GI50 [4] 1.45 µM | GI50 [5] 1.92 µM | GI50 [6] 7.95 µM | GI50 [7] 1.47 µM | GI50 [8] 1.51 µM | GI50 [9] 13.4 µM | GI50 [10] 15 µM | GI50 [11] 15.4 µM | GI50 [12] 1.77 µM | GI50 [13] 0.999 µM | GI50 [14] 12.3 µM | GI50 [15] 5.8 µM | GI50 [16] 1.62 µM | GI50 [17] 19.6 µM | GI50 [18] 1.59 µM | GI50 [19] 5.96 µM | GI50 [20] 1.82 µM | GI50 [21] 4.21 µM | GI50 [22] 1.18 µM | GI50 [23] 1.69 µM | GI50 [24] 15 µM | GI50 [25] 17.1 µM | GI50 [26] 3.63 µM | GI50 [27] 10.7 µM | GI50 [28] 13.6 µM | GI50 [29] 1.7 µM | GI50 [30] 4.82 µM | GI50 [31] 2.32 µM | GI50 [32] 14.1 µM | GI50 [33] 1.21 µM | GI50 [34] 1.61 µM | GI50 [35] 15.4 µM | GI50 [36] 7.31 µM | GI50 [37] 2.11 µM | GI50 [38] 15.8 µM | GI50 [39] 1.75 µM | GI50 [40] 19.3 µM | GI50 [41] 4.56 µM | GI50 [42] 1.58 µM | GI50 [43] 11.9 µM | GI50 [44] 12.2 µM | GI50 [45] 1.45 µM | GI50 [46] 13.1 µM | GI50 [47] 1.91 µM | GI50 [48] 0.495 µM | GI50 [49] 1.41 µM | GI50 [50] 22.7 µM | GI50 [51] 1.47 µM | GI50 [52] 17.6 µM | GI50 [53] 13.3 µM
3.01 µM: TGI [8]
29.3 µM: TGI [38]
5.55 µM: TGI [5]
33.9 µM: TGI [21]
9.14 µM: TGI [37]
3.26 µM: TGI [29]
22.2 µM: TGI [19]
23.7 µM: TGI [27]
2.97 µM: TGI [49]
25.5 µM: TGI [43]

Nn1c2c(c3ccccc3c1=O)C(=O)c1ccccc1-2
> 50 µM: TGI [1] | TGI [2] | TGI [54] | TGI [3] | TGI [4] | TGI [5] | TGI [6] | TGI [7] | TGI [8] | TGI [9] | TGI [11] | TGI [12] | TGI [13] | TGI [14] | TGI [15] | TGI [16] | TGI [17] | TGI [18] | TGI [19] | TGI [20] | TGI [21] | TGI [22] | TGI [23] | TGI [24] | TGI [25] | TGI [26] | TGI [27] | TGI [55] | TGI [28] | TGI [29] | TGI [30] | TGI [31] | TGI [32] | TGI [33] | TGI [34] | TGI [35] | TGI [36] | TGI [37] | TGI [38] | TGI [39] | TGI [40] | TGI [56] | TGI [41] | TGI [42] | TGI [43] | TGI [44] | TGI [45] | TGI [46] | TGI [47] | TGI [57] | TGI [48] | TGI [49] | TGI [50] | TGI [51] | TGI [52]
33.5 µM: TGI [53]
inactive: GI50 [1] > 50 µM | GI50 [2] > 50 µM | GI50 [54] 37.7 µM | GI50 [3] > 50 µM | GI50 [4] 15.7 µM | GI50 [5] > 50 µM | GI50 [6] 24.5 µM | GI50 [7] > 50 µM | GI50 [8] 30.1 µM | GI50 [9] 20.5 µM | GI50 [11] > 50 µM | GI50 [12] > 50 µM | GI50 [13] 31 µM | GI50 [14] > 50 µM | GI50 [15] > 50 µM | GI50 [16] 18.1 µM | GI50 [17] > 50 µM | GI50 [18] > 50 µM | GI50 [19] > 50 µM | GI50 [20] > 50 µM | GI50 [21] 26.7 µM | GI50 [22] > 50 µM | GI50 [23] > 50 µM | GI50 [24] 15.7 µM | GI50 [25] > 50 µM | GI50 [26] > 50 µM | GI50 [27] > 50 µM | GI50 [55] > 50 µM | GI50 [28] > 50 µM | GI50 [29] > 50 µM | GI50 [30] > 50 µM | GI50 [31] > 50 µM | GI50 [32] > 50 µM | GI50 [33] > 50 µM | GI50 [34] > 50 µM | GI50 [35] > 50 µM | GI50 [36] > 50 µM | GI50 [37] > 50 µM | GI50 [38] 27.9 µM | GI50 [39] > 50 µM | GI50 [40] > 50 µM | GI50 [56] > 50 µM | GI50 [41] > 50 µM | GI50 [42] > 50 µM | GI50 [43] > 50 µM | GI50 [44] 18.4 µM | GI50 [45] > 50 µM | GI50 [46] 48.3 µM | GI50 [47] > 50 µM | GI50 [57] 20.9 µM | GI50 [48] 20 µM | GI50 [49] > 50 µM | GI50 [50] 30.1 µM | GI50 [51] > 50 µM | GI50 [52] 40.5 µM | GI50 [53] 11.6 µM
